Some test systems named below: MCF7 breast; DU-145 prostate; SNB-75 CNS; TK-10 renal; RPMI-8226 leukemia; HL-60(TB) leukemia.
Common to all, as to assay: NCI tumour cell line growth inhibition, 48 h

Each structure is given as a SMILES string.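 Five compound concentrations were applied to cells in 96-well plates for 48 hours; endpoints were derived by simple linear interpolation of the resulting dose-response curve. The concentration for 50% growth inhibition is given as GI50. TGI: total growth inhibition.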 Where a SMILES comes first, the peptide text is derived from it. [ ]: non-standard residue; d: D form. The star is where a group is joined. Palmitoyl = CCCCCCCCCCCCCCCC(=O)*; Cbz = O=C(OCc1ccccc1)*; Aib = CC(C)(N)C(=O)O; OBn = c1ccc(CO*)cc1

This is an account of results in PubChem BioAssay (NCI).

Regarding `O=C(CN1C(=O)CC(c2ccccc2)(c2ccccc2)C1=O)N1CCN(CCO)CC1`, the TGI with MCF7 breast, with DU-145 prostate, in the test on SNB-75 CNS, in the test with TK-10 renal and with RPMI-8226 leukemia was more than 100 µM throughout.
For `CC(NC(=O)C(C)(C)NC(=O)C(CC(=O)OCc1ccccc1)NC(=O)OCc1ccccc1)C(N)=O` (stereo not given) (Cbz-Asp(OBn)-[Aib]-Ala-NH2; configuration not given here), the TGI in the test with MCF7 breast, in the test on DU-145 prostate, in the test with HL-60(TB) leukemia, in the test on TK-10 renal and with RPMI-8226 leukemia was more than 100 µM throughout.
In the case of `CCOC(=O)c1c2cccccc-2nc1Nc1cccc2c(C)ccnc12`, the TGI in the test on MCF7 breast, in the test with DU-145 prostate, with HL-60(TB) leukemia, in the test on TK-10 renal and in the test on RPMI-8226 leukemia was more than 10 µM throughout.
`CCc1n[nH]c(=O)n1-c1ccc2ccccc2c1`: the TGI in the test on MCF7 breast, with DU-145 prostate, with SNB-75 CNS, in the test with TK-10 renal and in the test with RPMI-8226 leukemia was more than 100 µM in each case.
As to `CCCCCCCCCCCCCCCC(=O)N1CCCC1C(=O)NCC(=O)NC(Cc1ccccc1)C(=O)N1CCCC1C(=O)NC(CO)C(=O)NC(Cc1ccc(O)cc1)C(=O)NC(CCCCN)C(=O)NC(CC(C)C)C(=O)NC(CCCN=C(N)N)C(=O)N1CCCC1C(=O)NCC(N)=O` (stereo not given) (Palmitoyl-PGFPSYKLRPG-NH2; configuration not given here), the GI50 with MCF7 breast is 15 µM; in the test on DU-145 prostate it was 18.3 µM; with HL-60(TB) leukemia, 18.7 µM; with SNB-75 CNS, 21.7 µM; in the test with RPMI-8226 leukemia, 11.6 µM. Moreover, the TGI in the test with MCF7 breast came to 35.3 µM; in the test with DU-145 prostate, 39.9 µM; with HL-60(TB) leukemia it was 52.9 µM; in the test on SNB-75 CNS, 49.3 µM; in the test on RPMI-8226 leukemia, 29.3 µM.
As to `Clc1sc(Cl)c2c1[C@@H](Cl)C[C@@H]2Br`, the TGI in the test with MCF7 breast, with DU-145 prostate, in the test on SNB-75 CNS and in the test on TK-10 renal was more than 100 µM throughout.
Turning to `C/C1=C\[C@H](C)C[C@H](C)OC(=O)[C@H](C)NC(=O)[C@@H](Cc2ccc(O)c(Br)c2)N(C)C(=O)[C@H](C)NC(=O)[C@@H](C)C1`, the TGI in the test on MCF7 breast is more than 25 µM; in the test on DU-145 prostate, more than 25 µM; with SNB-75 CNS, 0.0904 µM; in the test on TK-10 renal it was 0.269 µM; in the test on RPMI-8226 leukemia it was 0.604 µM.
Consider `CSc1nc2c(c(N(C)C)n1)C(O)n1c(nc3ccccc31)S2` (stereo not given), for which the TGI in the test on MCF7 breast is more than 100 µM; in the test on DU-145 prostate it was more than 100 µM; in the test with SNB-75 CNS, 74.2 µM; in the test with TK-10 renal, more than 100 µM; with RPMI-8226 leukemia it was more than 100 µM.
With `CCOC(=O)/C(C(C)=O)=C(\OC(C)=O)c1ccncc1C(=O)O`, the TGI in the test with MCF7 breast, in the test with DU-145 prostate, with HL-60(TB) leukemia, with SNB-75 CNS and in the test on RPMI-8226 leukemia was more than 100 µM each time.
As for `CO/N=C(/C(=O)OC)c1ccccc1COc1ccccc1C(F)(F)F`, the TGI with MCF7 breast was more than 100 µM; in the test with DU-145 prostate, more than 100 µM; in the test on HL-60(TB) leukemia it was 51.3 µM; with TK-10 renal, more than 100 µM; with RPMI-8226 leukemia, 50.3 µM.
`COC1OC2COC(c3ccccc3)OC2C(O)C1OC(=S)c1ccccc1` (stereo not given): the TGI was more than 100 µM in the test with MCF7 breast, more than 100 µM with DU-145 prostate, more than 100 µM in the test with TK-10 renal and 36.5 µM in the test on RPMI-8226 leukemia.
Consider `O=C1C(=Nc2ccc(Nc3ccccc3)cc2)Oc2ccccc21`, for which the TGI in the test with MCF7 breast is 5.74 µM; in the test on DU-145 prostate it was 21 µM; with HL-60(TB) leukemia, 4.9 µM; in the test on SNB-75 CNS it was 8.52 µM; in the test on TK-10 renal it was 12.2 µM.
For the compound `N#CC(c1ccccc1)N(CCOCCOCCN(C(=O)c1ccccc1)C(C#N)c1ccccc1)C(=O)c1ccccc1` (stereo not given), the TGI in the test on MCF7 breast, in the test on DU-145 prostate, in the test on HL-60(TB) leukemia, in the test with SNB-75 CNS and in the test with TK-10 renal was more than 100 µM throughout.
For `CC1(C)C=CC(=O)C(O)C(C)(C)C1=O` (stereo not given), the TGI in the test on DU-145 prostate, in the test with HL-60(TB) leukemia, in the test with SNB-75 CNS, in the test with TK-10 renal and in the test with RPMI-8226 leukemia was more than 100 µM in each case.
Consider `O=C(OCC(Cl)(Cl)Cl)N1CC[C@H](C2CCCCC2)C1`, for which the TGI in the test with MCF7 breast came out at 34.9 µM; in the test with DU-145 prostate it was 31.8 µM; with SNB-75 CNS, 35.9 µM; with TK-10 renal, 37.9 µM.
With `Cc1cc(OP2(=O)NCc3ncccc3O2)ccc1Cl` (stereo not given), the TGI in the test with MCF7 breast, with DU-145 prostate, in the test with SNB-75 CNS and in the test on RPMI-8226 leukemia was more than 100 µM each time.
In the case of `O=C1c2cccc3cccc(c23)C(=O)N1CCCNCCCCNCCCNCCCN1C(=O)c2cccc3cccc(c23)C1=O`, the TGI turned out to be 0.599 µM with MCF7 breast; 1.53 µM in the test on DU-145 prostate; 1.54 µM with HL-60(TB) leukemia; 1.46 µM in the test with SNB-75 CNS; 12.1 µM with TK-10 renal.
In the case of `CC1=C(C#N)c2nc3ccccc3n2C(=O)C1(C)CCO` (stereo not given), the TGI in the test on MCF7 breast, in the test with DU-145 prostate, in the test with HL-60(TB) leukemia, in the test with SNB-75 CNS and with TK-10 renal was more than 100 µM in each case.
With `CC12c3c4ccc(C=O)c3Oc3ccc(C=O)c(c31)Oc1ccc(C=O)c(c12)O4`, the TGI in the test with MCF7 breast, in the test on DU-145 prostate, in the test with HL-60(TB) leukemia, in the test with SNB-75 CNS and in the test on RPMI-8226 leukemia was more than 25 µM throughout.
With `CSc1csc(-c2ccc(-c3ccc(-c4cc(SC)cs4)s3)s2)c1`, the TGI in the test on MCF7 breast, in the test with SNB-75 CNS, in the test on TK-10 renal and in the test with RPMI-8226 leukemia was more than 100 µM in each case.
For `COC(=O)c1ccccc1CC1Cc2cccc(C)c2C1=O` (stereo not given), the TGI is 56.1 µM with MCF7 breast, more than 100 µM in the test on DU-145 prostate, 86.8 µM in the test on SNB-75 CNS and 71.1 µM in the test with TK-10 renal.
Turning to `CC(C)C1=CC23CCC4C(C)(C(=O)O)CCCC4(C)C2CC1C1C(=O)N(CCCCCCN2C(=O)C4C5CC6C7(C)CCCC(C)(C(=O)O)C7CCC6(C=C5C(C)C)C4C2=O)C(=O)C13` (stereo not given), the TGI in the test with MCF7 breast was 21.7 µM; with HL-60(TB) leukemia, 82.6 µM; in the test on TK-10 renal, 31 µM; in the test with RPMI-8226 leukemia, more than 100 µM.
`CCCCOCCOC1=C(Cl)C(=O)c2c(O)ccc(O)c2C1=O`: the TGI in the test with MCF7 breast is 2.04 µM; in the test on DU-145 prostate, 3.08 µM; in the test with SNB-75 CNS, 2.01 µM; with TK-10 renal, 1.81 µM; in the test with RPMI-8226 leukemia, 0.806 µM.
For the compound `O=C(c1ccccc1)c1ccc2c(c1)NC(=O)c1ccccc1SSc1ccccc1C(=O)N2`, the TGI in the test with DU-145 prostate, in the test with HL-60(TB) leukemia, in the test with TK-10 renal and with RPMI-8226 leukemia was more than 100 µM throughout.
Regarding `C=C(C)CNCCN`, the TGI in the test with DU-145 prostate, in the test on HL-60(TB) leukemia and in the test with TK-10 renal was more than 100 µM each time.
`c1ccc(C(C(=Nc2ccc(Cc3ccc(N=C(C(c4ccccc4)c4ccccc4)N4CC4)cc3)cc2)N2CC2)c2ccccc2)cc1`: the TGI in the test with MCF7 breast was determined as 15.4 µM; in the test with DU-145 prostate, 28 µM; in the test with HL-60(TB) leukemia it was 18.4 µM; with TK-10 renal, 34.5 µM; with RPMI-8226 leukemia, 39.5 µM.
Consider `O=C1N(Cc2ccccc2)C2CSCC2N1Cc1ccccc1` (stereo not given), for which the TGI in the test on MCF7 breast is more than 100 µM; in the test on DU-145 prostate it was more than 100 µM; in the test on SNB-75 CNS it was more than 100 µM; with TK-10 renal, 85.9 µM; in the test with RPMI-8226 leukemia, 59 µM.
Turning to `CC(C)(C)c1ccc2c(c1)C#Cc1cc3c(cc1OCCCO2)C#Cc1cc(C(C)(C)C)ccc1OCCCO3`, the TGI with MCF7 breast, with DU-145 prostate, in the test with HL-60(TB) leukemia, in the test on TK-10 renal and in the test on RPMI-8226 leukemia was more than 100 µM each time.
For the compound `O=c1onc2n1-c1cc(Cl)ccc1C(=S)N1CSCC21` (stereo not given), the TGI with MCF7 breast, in the test with DU-145 prostate, in the test on SNB-75 CNS, in the test with TK-10 renal and with RPMI-8226 leukemia was more than 100 µM each time.
With `COc1ccc2oc(=N)c(C(=O)Nc3ccccc3)cc2c1`, the TGI with MCF7 breast was 33.2 µM; in the test with DU-145 prostate it was more than 100 µM; with SNB-75 CNS, 28 µM; in the test with TK-10 renal it was more than 100 µM; in the test on RPMI-8226 leukemia it was 83 µM.
Turning to `Cc1cc(C[C@H]2O[C@@H]3OC(C)(C)O[C@@H]3[C@H]3OC(C)(C)O[C@H]32)c2ccccc2n1`, the TGI in the test with DU-145 prostate was more than 100 µM; in the test with HL-60(TB) leukemia it was 51.5 µM; with SNB-75 CNS, more than 100 µM; with TK-10 renal, more than 100 µM; in the test on RPMI-8226 leukemia, more than 100 µM.
In the case of `Cn1c2ccccc2c2c(=S)c3ccccc3ccc21`, the TGI in the test with MCF7 breast, in the test on DU-145 prostate, in the test on HL-60(TB) leukemia, with SNB-75 CNS and with TK-10 renal was more than 100 µM each time.
